Measurements taken from patent US5013841A, “Oxo quinoline derivatives” (Dainippon Pharmaceutical Co., Ltd., priority 1987, dated 1991).
≈ marks a conversion by molar mass, not a printed value. Like-named read-outs stand apart in the source and are kept apart here.

What was measured:
E. coli NIHJ JC-2 = assay: In vitro antibacterial activity (twofold agar-dilution method); assay type: cell-based; settings: Escherichia coli, NIHJJC2; E. coli NIHJ JC-2; agar dilution, 20 h, 37° C., calculated for free base; read-out: minimum inhibitory concentration (MIC)
Protocol: (§1) The figures in the table show minimum inhibitory concentrations (MIC) (μg/ml), calculated for free base. The minimum inhibitory concentration was determined by the twofold agar-dilution method, which was recommended by Japan Society of Chemotherapy (Chemotherapy, 29(1), 76(1981)), using Muller-Hinton agar. One loopful of an overnight culture of test organisms in Mueller-Hinton broth was inoculated onto 10-ml drug-containing agar layers in petri dishes. Bacterial inocula contained approximately 10^6 colonyl-formingunits. Bacterial growth was observed after 20-hour incubation at 37° C. The MIC was defined as the lowest drug concentration which prevented visible bacterial growth.

S. aureus 209 JC-1 = assay: as above; assay type: cell-based; settings: Staphylococcus aureus, read-out: minimum inhibitory concentration (MIC)
Protocol: as §1

S. epidermidis No. 8 = assay: as above; assay type: cell-based; settings: Staphylococcus epidermidis, read-out: minimum inhibitory concentration (MIC)
Protocol: as §1

M. pneumoniae Mac = assay: Antimycoplasma activity (twofold agar dilution method); assay type: cell-based, Mycoplasma pneumoniae; settings: Mycoplasmoides pneumoniae, 168 h; M. pneumoniae Mac; Chanock agar, 37° C., 7 days, aerobic, calculated for free base; read-out: minimum inhibitory concentration (MIC)
Protocol: (§2) The figures in the table show minimum inhibitory concentrations (MIC), (μg/ml), calculated for free base.
(§3) Minimum inhibitory concentrations (MIC) were determined by the twofold agar dilution method. The media used were Chanock broth and agar PPLD broth and agar (Difco) supplemented with 20% horse serum and 10% fresh yeast extract). A 2-3 day broth culture of organisms was diluted with Chanock broth to a cell density of about 10^6 cells/ml. One loopful (about […]) of the organism dilution was spotted onto 10-ml drug containing Chanock agar in petri dishes using a multiple inoculator (Cathra International). The petri dishes were incubated at 37° C. for 7 and 2 days for Mycoplasma pneumoniae and other Mycoplasma spp. respectively. Incubation was performed anaerobically using the Gaspak anaerobic system (BBL) for M. buccale, M. fermentans, M. hominis, M. orale and M. salivarium, and aerobically for other Mycoplasma spp. The MIC was defined as the lowest compound concentration at which no growth of organism was detected.

A. laidlawii PG-8 = assay: as above; assay type: cell-based; settings: Acholeplasma laidlawii, PG8, 48 h, read-out: minimum inhibitory concentration (MIC)
Protocol: as §2, §3

M. arginini G-230 = assay: as above; assay type: cell-based; settings: 48 h, read-out: minimum inhibitory concentration (MIC)
Protocol: as §2, §3

M. buccale CH-20249 = assay: as above; assay type: cell-based; settings: 48 h, read-out: minimum inhibitory concentration (MIC)
Protocol: as §2, §3

M. fermentans PG-18 = assay: as above; assay type: cell-based; settings: Mycoplasmopsis fermentans, PG18, 48 h; M. fermentans PG-18; Chanock agar, 37° C., 2 days, anaerobic, calculated for free base; read-out: minimum inhibitory concentration (MIC)
Protocol: as §2, §3

M. hominis PG-21 = assay: as above; assay type: cell-based; settings: Metamycoplasma hominis, PG21, 48 h; M. hominis PG-21; Chanock agar, 37° C., 2 days, anaerobic, calculated for free base; read-out: minimum inhibitory concentration (MIC)
Protocol: as §2, §3

M. hyorhinis BST-7 = assay: as above; assay type: cell-based; settings: Mesomycoplasma hyorhinis, BST7, 48 h, read-out: minimum inhibitory concentration (MIC)
Protocol: as §2, §3

M. orale CH-19299 = assay: as above; assay type: cell-based; settings: 48 h, read-out: minimum inhibitory concentration (MIC)
Protocol: as §2, §3

M. salivarium PG-20 = assay: as above; assay type: cell-based; settings: 48 h, read-out: minimum inhibitory concentration (MIC)
Protocol: as §2, §3

[1] = system: C. Trachomatics G/ur 1317; assay: Antichlamydia activity (inclusion bodies in McCoy cells); assay type: cell-based; settings: 36° C., 40-48 h, calculated for free base, read-out: minimum inhibitory concentration (MIC)
Protocol: (§4) Minimum inhibitory concentrations (MIC) were determined as follows. McCoy cells were freshly cultured in Eagle's minimum essential medium (EMEM) (Flow) supplemented with 4% fetal bovine serum and 0.03% L-glutamine. The cells were trypsinized and suspended in the same culture medium at a cell concentration of 1-2×10^5 cells/ml. One ml of the cell suspension was pipetted into flat-bottomed plastic tubes (14 mm in diameter) containing a cover slip (12 mm in diameter). The tubes were incubated in 5% CO2 -air at 36° C. for 20 hours. One-half ml of a chlamydial suspension (ca. 1-4×10^3 inclusion body forming units) was added into each tube, which was then centrifuged at 1500×g for 60 minutes. The tubes were incubated for 1 hour at 36° C. The medium was changed with 1 ml of EMEM supplemented with 8% fetal bovine serum, 0.03% L-blutamine, 1μg/ml cycloheximide and 0.5% glucose, and containing drugs at various concentrations. After further incubation at 36° C. for 40-48 hours, the cells on the cover glasses were stained with the Giemsa's solution. […] The MIC was defined as the lowest drug concentration where there were no inclusion bodies in all the cells on the cover slip.

[2] = system: C. Trachomatics G/ur 1467; assay: as above; assay type: cell-based; settings: 36° C., 40-48 h, calculated for free base, read-out: minimum inhibitory concentration (MIC)
Protocol: as §4

[3] = system: C. Trachomatics G/ur 1483; assay: as above; assay type: cell-based; settings: 36° C., 40-48 h, calculated for free base, read-out: minimum inhibitory concentration (MIC)
Protocol: as §4

C. Trachomatics G/ur 931 = assay: as above; assay type: cell-based; settings: 36° C., 40-48 h, calculated for free base, read-out: minimum inhibitory concentration (MIC)
Protocol: as §4

[4] = Acute oral toxicity in mice; settings: mouse, in vivo, male mice (ddY), 7 days, Behrens-Kaerber method, read-out: median lethal dose (LD50)
Protocol: A suspension containing each of compounds of this invention in various concentrations was orally given to male mice (ddY) at a dose of 0.1 ml per 10 g of body weight. The number of dead mice was counted after 7 days, and the value of median lethal dose (LD50, mg/kg) was calculated in accordance with the Behrens-Kaerber method.

SMILES | MIC (E. coli NIHJ JC-2) | MIC (M. pneumoniae Mac) | MIC (M. fermentans PG-18) | MIC (M. hominis PG-21) | MIC [1] | MIC [2] | MIC [3] | MIC (C. Trachomatics G/ur 931) | LD50 at 168 h [4] | also measured
Nc1c(F)c(N2CCNCC2)cc2c1c(=O)c(C(=O)O)cn2C1CC1 [Compound 1] | 0.0063 µg/mL (≈ 0.0182 µM) | 0.1 µg/mL (≈ 0.289 µM) | 0.1 µg/mL (≈ 0.289 µM) | 0.39 µg/mL (≈ 1.13 µM) | 0.25 µg/mL (≈ 0.722 µM) | 0.25 µg/mL (≈ 0.722 µM) | 0.25 µg/mL (≈ 0.722 µM) | 0.25 µg/mL (≈ 0.722 µM) | > 2000 mg/kg | MIC (S. aureus 209 JC-1; 209JC1, S. aureus 209 JC-1, agar dilution, 20 h, 37° C., calculated for free base): 0.025 µg/mL (≈ 0.0722 µM); MIC (S. epidermidis No. 8; S. epidermidis No. 8, agar dilution, 20 h, 37° C., calculated for free base): 0.025 µg/mL (≈ 0.0722 µM); MIC (A. laidlawii PG-8; A. laidlawii PG-8, Chanock agar, 37° C., 2 days, aerobic, calculated for free base): 0.1 µg/mL (≈ 0.289 µM); MIC (M. arginini G-230; M. arginini G-230, Chanock agar, 37° C., 2 days, aerobic, calculated for free base): 0.1 µg/mL (≈ 0.289 µM); MIC (M. buccale CH-20249; M. buccale CH-20249, Chanock agar, 37° C., 2 days, anaerobic, calculated for free base): 0.1 µg/mL (≈ 0.289 µM); MIC (M. hyorhinis BST-7; M. hyorhinis BST-7, Chanock agar, 37° C., 2 days, aerobic, calculated for free base): 0.1 µg/mL (≈ 0.289 µM); MIC (M. orale CH-19299; M. orale CH-19299, Chanock agar, 37° C., 2 days, anaerobic, calculated for free base): 0.39 µg/mL (≈ 1.13 µM); MIC (M. salivarium PG-20; M. salivarium PG-20, Chanock agar, 37° C., 2 days, anaerobic, calculated for free base): 1.56 µg/mL (≈ 4.5 µM)
C[C@@H]1CN(c2cc3c(c(N)c2F)c(=O)c(C(=O)O)cn3C2CC2)C[C@H](C)N1 [Compound 2, 5-amino-1-cyclopropyl-6-fluoro-7-(cis-3,5-dimethyl-1-piperazinyl)-1,4-dihydro-4-oxoquinoline-3-carboxylic acid] | 0.025 µg/mL (≈ 0.0668 µM) | 0.1 µg/mL (≈ 0.267 µM) | 0.025 µg/mL (≈ 0.0668 µM) | 0.1 µg/mL (≈ 0.267 µM) | 0.063 µg/mL (≈ 0.168 µM) | 0.063 µg/mL (≈ 0.168 µM) | 0.063 µg/mL (≈ 0.168 µM) | 0.063 µg/mL (≈ 0.168 µM) | > 2000 mg/kg | MIC (S. aureus 209 JC-1; 209JC1, 20 h): 0.1 µg/mL (≈ 0.267 µM); MIC (S. epidermidis No. 8; NO.8, 20 h): 0.1 µg/mL (≈ 0.267 µM); MIC (A. laidlawii PG-8): 0.05 µg/mL (≈ 0.134 µM); MIC (M. arginini G-230): 0.05 µg/mL (≈ 0.134 µM); MIC (M. buccale CH-20249): 0.05 µg/mL (≈ 0.134 µM); MIC (M. hyorhinis BST-7): 0.05 µg/mL (≈ 0.134 µM); MIC (M. orale CH-19299): 0.39 µg/mL (≈ 1.04 µM); MIC (M. salivarium PG-20): 0.39 µg/mL (≈ 1.04 µM)
